How the values were obtained:
Alternaria brassicicola [1] = assay: Test B: potentiating effect with a plant defense molecule on growth of Alternaria brassicicola; assay type: cell-based; conditions: Alternaria brassicicola
Method: Test B: • 1) Determining a non-fungicidal amount of said agent, preferably according to Test A; • 2) Determining a non-fungicidal amount of a plant defense molecule, preferably according to Test A; • 3) Measuring growth of fungal conidia in a medium comprising a combination of a non-fungicidal amount of the agent, as determined in step 1, and a non-fungicidal amount of the plant defense molecule, as determined in step 2. In one embodiment, the growth is measured as follows: Suspensions of fungal conidia (starting material: 10^5 conidia/mL) are cultured in liquid medium, such as, for example, 300 μL of PBD medium, on microplate wells at 25° C. with shaking at 175 rpm for 5 minutes every 10 minutes. Non-fungicidal concentrations of the tested agent and of the tested plant defense molecule are added on wells, and fungal growth is measured during at least 5 hours, preferably at least 10, 20, 30 hours. Methods for measuring fungal growth are well known from the skilled artisan. Examples of such methods include, but are not limited to, photometry, such as, for example, spectrophotometric methods; or nephelometry, such as, for example, laser nephelometry as described in Joubert et al (Biotechniques, 2010, 48:399-404). Growth inhibition is measured by comparing the Area Under Curves (AUC) of treated samples and of untreated controls.
The potentiating effect of chelerythrin is measured in a suspension of conidia treated with a plant defense molecule, camalexin, which is present at a non-fungicidal amount as determined hereinabove. Said non-fungicidal amount is consistent with the amount of camalexin produced by an infected plant organ.
Alternaria brassicicola growth was measured as described hereinabove.
A non-fungicidal amount of chelerythrin (as determined in Example 1a) and/or a non-fungicidal amount of camalexin (as determined in Example 1b) or 10 μL of DMSO are added per well, and growth curves were drawn (FIG. 3).
In the Table 5 below are shown compounds (column 1) having a potentiating effect of a plant defense molecule (column 2) for the inhibition of a pathogenic fungus (column 3). The type of the potentiating agent in this particular situation is given in column 4 (homologous or heterologous). Triads were identified according to Test B.

Alternaria brassicicola [2] = assay: Test A: growth of Alternaria brassicicola conidia followed by nephelometry, to find the non-fungicidal amount; assay type: cell-based
Method: Suspensions of fungal conidia (starting material being for example 10^5 conidia/mL) are cultured in liquid medium, such as, for example, 300 μL of PBD medium, on microplate wells at 25° C. with shaking at 175 rpm for 5 minutes every 10 minutes. Increasing concentrations of the tested product are added on wells, and fungal growth is measured, during at least 5 hours, preferably at least 10, 20, 30 hours. Methods for measuring fungal growth are well known from the skilled artisan. Examples of such methods include, but are not limited to, photometry, such as, for example, spectrophotometric methods; or nephelometry, such as, for example, laser nephelometry as described in Joubert et al (Biotechniques, 2010, 48:399-404). Growth inhibition is measured by comparing the Area Under Curves (AUC) of treated samples and of untreated controls. Test A is carried out in Example 1.
Alternaria brassicicola strains were cultivated at 24° C. on potato dextrose (PD) medium (Cat. No. 213200; Becton Dickinson, USA).
For inoculum preparation, conidia were collected from 8-days-old solid cultures by adding PD broth followed by gentle scraping of the agar plates. They were counted in a Thoma's chamber and the conidial suspensions were diluted to the concentration of 10^5 conidia/mL.
Growth was automatically recorded for at least 30 hours at 25° C. using a nephelometric reader (NEPHELOstar Galaxy, BMG Labtech, Germany) equipped with a 635-nm laser as radiation source. During incubation, the 96-well plates were subjected to shaking at 175 rpm for 5 minutes every 10 minutes. Measurements were done every hour with a gain value of 90 and a percentage of the maximum value of 20%. Each well was measured for 0.1 second with a laser beam of 2.5 mm.
Chelerythrin (25 μM or 50 μM, test wells) or 10 μL of DMSO (chelerythrin solvent, control wells) were added on wells, and growth curves were drawn (FIG. 1).
Camalexin (10, 20, 40 or 60 μM, test wells) or 10 μL of DMSO (chelerythrin solvent, control wells) were added on wells, and growth curves were drawn (FIG. 2).

[3] = plant defense molecule Resveratrol
[4] = plant defense molecule Brassinin

| SMILES | Type of potentiating agent (compound having a potentiating effect of the plant defense molecule) (Alternaria brassicicola [1]; [3]) | Type of potentiating agent (compound having a potentiating effect of the plant defense molecule) (Alternaria brassicicola [1]; [4]) | Type of potentiating agent (compound having a potentiating effect of the plant defense molecule) (Alternaria brassicicola [1]; plant defense molecule Camalexin) | inhibition of Alternaria brassicicola growth (Alternaria brassicicola [2]; 10 μM camalexin) | inhibition of Alternaria brassicicola growth (Alternaria brassicicola [2]; 20 μM camalexin) |
| --- | --- | --- | --- | --- | --- |
| CCOc1cc2c(OCC)cc3c4cc(OC)c(OC)cc4cnc3c2cc1OC [Compound 3] | Heterologous | – | – | – | – |
| COc1cc2c[n+](C)c3c4cc(OC)c(OC)cc4c(OCc4ccccc4)cc3c2cc1OC [Compound 4] | Heterologous | Homologous | – | – | – |
| COc1cc2c(OC)cc3c4cc(OC)c(OC)cc4c(=O)n(C)c3c2cc1OC [Compound 5] | Heterologous | Homologous | – | – | – |
| c1c2c(cc3c1OCO3)-c1cc3ccc4c(c3c[n+]1CC2)OCO4 [Coptisin] | – | Homologous | Homologous | – | – |
| c1ccc2c(-c3nccs3)c[nH]c2c1 [camalexin, reference compound] | – | – | – | ≤ 20% | ≤ 20% |
